This passage reports IC50 and inhibition results from patent US20120004244A1, “Bis Aromatic Compounds for Use as LTC4 Synthase Inhibitors” (BIOLIPOX AB, priority 2009, published 2012).

For this assay, the target named is T1, Recombinant human LTC4 synthase (Homo sapiens, UniProt Q16873).
T1 construct: made in house; host or cells: Pichia pastoris ('Piccia pastoralis' [sic])
T1 sequence (Q16873 1-150): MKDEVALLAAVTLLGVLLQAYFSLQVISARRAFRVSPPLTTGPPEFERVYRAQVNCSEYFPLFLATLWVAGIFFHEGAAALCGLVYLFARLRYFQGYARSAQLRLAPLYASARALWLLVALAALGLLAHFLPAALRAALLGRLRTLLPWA
Nature of the assay: LTC4 synthase in vitro assay (LTA4 to LTC4, HTRF detection). Format: biochemical. As to conditions: for inhibition at 10 µM: 5 min, total concentration of title compound in the assay 10 μM. Summed up: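 Purified recombinant human LTC4 synthase expressed in Pichia (0.5 μg/mL total protein) was preincubated with inhibitor at 10 μM final for 10 min at room temperature in PBS pH 7.4 with 5 mM GSH. LTA4 was then added at 2.5 μM final, and after 5 min at room temperature LTC4 was detected by HTRF.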
In general terms: Time-resolved FRET reads energy transfer from a long-lived donor to a nearby acceptor.

As to `O=C(c1ccc(Oc2ccccc2)c(C(=O)O)c1)c1ccc(-c2ccc(Cl)cc2)cn1` [7:2, 5-[5-(4-Chlorophenyl)picolinoyl]-2-phenoxybenzoic acid], the IC50 worked out at 752 nM.
Consider `O=C(c1ccc(Oc2ccccc2CCCO)c(C(=O)O)c1)c1ccc(N(CC2CC2)c2ccc(Cl)cc2)cn1` [1:36, 5-{5-[(4-Chlorophenyl)(cyclopropylmethyl)amino]picolinoyl}-2-[2-(3-hydroxypropyl)phenoxy]benzoic acid], for which the IC50 worked out at 116 nM.
For the molecule `CN(c1ccc(Cl)cc1)c1ccc(C(=O)c2ccc(Oc3ccccc3[S+](C)[O-])c(C(=O)O)c2)nc1` (stereo not shown) [1:47, 5-{5-[(4-Chlorophenyl)(methyl)amino]picolinoyl}-2-(2-methylsulfinylphenoxy)-benzoic acid], the IC50 came out at 1030 nM and the inhibition at 10 µM worked out at 88%.
In the same order, the values of `CC(C)(C)c1ccc(N(CC2CC2)c2ccc(C(=O)c3ccc(Oc4ccccc4)c(C(=O)O)c3)nc2)cc1` [1:20, 5-{5-[(4-tert-Butylphenyl)(cyclopropylmethyl)amino]picolinoyl}-2-phenoxybenzoic acid] are 549 nM and 100%.
With `CN(c1ccc(Cl)cc1)c1ccc(C(=O)c2ccc(NS(=O)(=O)c3cccs3)c(C(=O)O)c2)nc1` [4:3, 5-{5-[(4-Chlorophenyl)(methyl)amino]picolinoyl}-2-(2-thienylsulfonamido)benzoic acid], the IC50 came out at 40 nM and the inhibition at 10 µM came out at 99%.
In the case of `COc1ccc(COc2ccc(C(=O)c3ccc(N(C)c4ccc(Cl)cc4)cn3)cc2C(=O)O)cc1` [12:1, 5-{5-[(4-Chlorophenyl)(methyl)amino]picolinoyl}-2-(4-methoxybenzyloxy)benzoic acid], the IC50 is 380 nM.
Take `C=CCN(c1ccc(C(F)(F)F)cc1)c1ccc(C(=O)c2ccc(Oc3ccccc3)c(C(=O)O)c2)nc1` [1:13, 5-{5-[(Allyl)(4-trifluoromethylphenyl)amino]picolinoyl}-2-phenoxybenzoic acid]: the IC50 came out at 290 nM and the inhibition at 10 µM was found to be 99%.
`CN(c1ccc(Cl)cc1)c1ccc(C(=O)c2ccc(-c3cccc(-c4ccccc4)c3)c(C(=O)O)c2)nc1` [21:9, 4-{5-[(4-Chlorophenyl)(methyl)amino]picolinoyl}[1,1′;2′,1″]terphenyl-2-carboxylic acid[1,1′;3′,1″]terphenyl-2-carboxylic acid]: the IC50 is 511 nM.
`CN(c1ccc(Cl)cc1)c1ccc(C(=O)c2ccc(C(=O)c3ccc(C(F)(F)F)cc3)c(C(=O)O)c2)nc1` [5:11]: the IC50 is 216 nM.
Consider `O=C(c1ccc(-n2nncc2-c2ccc(F)cc2)c(C(=O)O)c1)c1ccc(N(CC2CC2)c2ccc(Cl)cc2)cn1` [17:5, 5-{5-[(4-Chlorophenyl)(cyclopropylmethyl)amino]picolinoyl}-2-(5-(4-fluorophenyl)-1,2,3-triazol-1-yl)benzoic acid], for which the 50% inhibitory concentration (IC50) is 56 nM.
`O=C(c1ccc(Oc2ccccc2)c(C(=O)O)c1)c1ccc(N(CC2CC2)c2cccc(C(F)(F)F)c2)cn1` [1:14, 5-{5-[(Cyclopropylmethyl)(3-trifluoromethylphenyl)amino]picolinoyl}-2-phenoxybenzoic acid]: the IC50 was 197 nM and the inhibition at 10 µM is 100%.
Regarding `CN(c1ccc(Cl)cc1)c1ccc(C(=O)c2ccc(NC(=O)c3ccc(S(=O)(=O)N(C)C)cc3)c(C(=O)O)c2)nc1` [3:15, 5-{5-[(4-Chlorophenyl)(methyl)amino]picolinoyl}-2-(4-dimethylsulfamoyl-benzamido)benzoic acid], the IC50 stood at 41 nM.
As for `CN(c1ccc(Cl)cc1)c1ccc(C(=O)c2ccc(OCc3ccc(F)c(F)c3)c(C(=O)O)c2)nc1` [12:4, 5-{5-[(4-Chlorophenyl)(methyl)amino]picolinoyl}-2-(3,4-difluorobenzyloxy)-benzoic acid], the IC50 was found to be 150 nM.
In the case of `COc1ccc(C(=O)Nc2ccc(C(=O)c3ccc(N(C)c4ccccc4)cn3)cc2C(=O)O)c(OC)c1` [3:34, 2-(2,4-Dimethoxybenzamido)-5-{5-[(methyl)(phenyl)amino]picolinoyl}benzoic acid], the IC50 amounted to 163 nM.
On the same count and under the same terms, with `CN(c1ccc(Cl)cc1)c1ccc(C(=O)c2ccc(Nc3ccccc3)c(C(=O)O)c2)nc1` [2:21, 5-{5-[(4-Chlorophenyl)(methyl)amino]picolinoyl}-2-phenylaminobenzoic acid] the figure was 139 nM.
Take `CN(c1ccc(Cl)cc1)c1ccc(C(=O)c2ccc(C(=O)Cc3ccccc3)c(C(=O)O)c2)nc1` [5:16, 5-{5-[(4-Chlorophenyl)(methyl)amino]picolinoyl}-2-phenylacetylbenzoic acid]: the IC50 came out at 257 nM.
For `O=C(c1ccc(-n2nc(C(F)(F)F)cc2-c2ccccc2)c(C(=O)O)c1)c1ccc(N(CC2CC2)c2ccc(Cl)cc2)cn1` [18:1, 5-{5-[(4-Chlorophenyl)(cyclopropylmethyl)amino]picolinoyl}-2-(5-phenyl-3-trifluoro-methylpyrazol-1-yl)benzoic acid], the IC50 was 297 nM.
With `CN(c1ccc(Cl)cc1)c1ccc(C(=O)c2ccc(NS(=O)(=O)c3ccccc3)c(C(=O)O)c2)nc1` [4:1, 5-{5-[(4-Chlorophenyl)(methyl)amino]picolinoyl}-2-(phenylsulfonamido)benzoic acid], the IC50 stood at 39 nM. For the same molecule, the inhibition at 3 µM (compound concentration 3 μM) was found to be 100%.
As for `CN(c1ccc(Cl)cc1)c1ccc(C(=O)c2ccc(-n3nc(C(F)(F)F)cc3-c3ccc(Cl)cc3)c(C(=O)O)c2)nc1` [18:7, 5-{5-[(4-Chlorophenyl)(methyl)amino]picolinoyl}-2-[5-(4-chlorophenyl)-3-trifluoromethylpyrazol-1-yl]benzoic acid], the IC50 is 250 nM.
Still for that read-out and setting: the value for `CN(c1ccc(Cl)cc1)c1ccc(C(=O)c2ccc(OCc3ccc4c(c3)OCO4)c(C(=O)O)c2)nc1` [12:5, 5-{5-[(4-Chlorophenyl)(methyl)amino]picolinoyl}2-(3,4-methylenedioxy-benzyloxy)benzoic acid] was 166 nM.
For the molecule `COc1cccc(COc2ccc(C(=O)c3ccc(N(C)c4ccc(Cl)cc4)cn3)cc2C(=O)O)c1` [12:6, 5-{5-[(4-Chlorophenyl)(methyl)amino]picolinoyl}-2-(3-methoxybenzyloxy)-benzoic acid], the IC50 stood at 219 nM.
In the case of `O=C(c1ccc(Oc2ccc(F)cc2)c(C(=O)O)c1)c1ccc(N(CC2CC2)c2ccc(Cl)cc2)cn1` [1:27, 5-{5-[(4-Chlorophenyl)(cyclopropylmethyl)amino]picolinoyl}-2-(4-fluorophenoxy)-benzoic acid], the IC50 was found to be 52 nM.
For `CN(c1ccc(Cl)cc1)c1ccc(C(=O)c2ccc(NCc3ccccc3)c(C(=O)O)c2)nc1` [2:3, 2-Benzylamino-5-{5-[(4-chlorophenyl)(methyl)amino]picolinoyl}benzoic acid], the IC50 is 92 nM.
With `O=C(c1ccc(Oc2ccccc2)c(C(=O)O)c1)c1ccc(OCc2cccc(Cl)c2)cn1` [11:1, 5-[5-(3-Chlorobenzyloxy)picolinoyl]-2-phenoxybenzoic acid], the IC50 is 143 nM.
Regarding `COc1cccc(C(=O)Nc2ccc(C(=O)c3ccc(N(CC4CC4)c4ccc(Cl)cc4)cn3)cc2C(=O)O)c1` [3:23, 5-{5-[(4-Chlorophenyl)(cyclopropylmethyl)amino]picolinoyl}-2-(3-methoxy-benzamido)benzoic acid], the IC50 turned out to be 33 nM.
Still for that read-out and setting: the value for `CN(c1ccc(Cl)cc1)c1cnc(C(=O)c2ccc(Oc3ccccc3)c(C(=O)O)c2)nc1` [10:3, 5-{5-[(4-Chlorophenyl)(methyl)amino]pyrimidine-2-carbonyl}-2-phenoxybenzoic acid] was 300 nM.
For `CCN(c1ccc(C(C)(C)C)cc1)c1ccc(C(=O)c2ccc(Oc3ccccc3)c(C(=O)O)c2)nc1` [1:22, 5-{5-[(4-tert-Butylphenyl)(ethyl)amino]picolinoyl}-2-phenoxybenzoic acid], the IC50 was found to be 1240 nM and the inhibition at 10 µM was 99%.
In the same order, the values of `CN(c1ccc(Cl)cc1)c1ccc(C(=O)c2ccc(Oc3cccc(Cl)c3)c(C(=O)O)c2)nc1` [1:3, 2-(3-Chlorophenoxy)-5-{5-[(4-chlorophenyl)(methyl)amino]picolinoyl}benzoic acid] are 124 nM and 98%.
With `COc1ccccc1CNc1ccc(C(=O)c2ccc(N(C)c3ccc(Cl)cc3)cn2)cc1C(=O)O` [2:8, 5-{5-[(4-Chlorophenyl)(methyl)amino]picolinoyl}-2-(2-methoxybenzylamino)benzoic acid], the IC50 is 132 nM.
`CN(c1ccc(Cl)cc1)c1ccc(C(=O)c2ccc(NC(=O)c3cccc(Br)c3)c(C(=O)O)c2)nc1` [3:38, 2-(3-Bromobenzamido)-5-{5-[(4-chlorophenyl)(methyl)amino]picolinoyl}benzoic acid]: the IC50 was 68 nM.
For the molecule `C=CCN(c1ccc(Cl)cc1)c1ccc(C(=O)c2ccc(Oc3ccccc3)c(C(=O)O)c2)nc1` [1:8, 5-{5-[(Allyl)(4-chlorophenyl)amino]picolinoyl}-2-phenoxybenzoic acid], the IC50 is 88 nM and the inhibition at 10 µM worked out at 100%.
On to `CCCCCCC(=O)c1ccc(C(=O)c2ccc(N(C)c3ccc(Cl)cc3)cn2)cc1C(=O)O` [5:17, 5-{5-[(4-Chlorophenyl)(methyl)amino]picolinoyl}-2-heptanoylbenzoic acid], for which the concentration for half-maximal inhibition (IC50) came out at 90 nM.
As for `CN(c1ccc(Cl)cc1)c1ccc(C(=O)c2ccc(Oc3ccccc3S(C)(=O)=O)c(C(=O)O)c2)nc1` [1:48, 5-{5-[(4-Chlorophenyl)(methyl)amino]picolinoyl}-2-(2-methylsulfonylphenoxy)-benzoic acid], the IC50 is 632 nM and the inhibition at 10 µM came out at 95%.

Broadly, the IC50 is the concentration at which inhibition is half-maximal. Broadly, the inhibition is the change of the read-out against control, counted positive when it falls.
